Earlier results in patent US20070213354A1, “Compositions and Methods for the Treatment of Multiple Sclerosis” (AmpliMed Corporation, priority 2006, published 2007).

What was measured:
[1] = tested on: L1210 sensitive; conditions: murine leukemia L1210 sensitive to standard cytotoxic agents; MTT, continuous exposure; cited from earlier work
[2] = tested on: L1210 resistant; conditions: murine leukemia L1210 resistant, P-glycoprotein producing; MTT, continuous exposure; cited from earlier work
[3] = tested on: neonatal rat myocytes; conditions: 1 hour drug concentration that reduces ATP/protein ratio to 50% of untreated control myocytes; read-out: IC50 Cardiotox; cited from earlier work

SMILES | IC50 [1] | IC50 [2] | IC50 [3]
CCN1CCCC(N2C(=O)c3cccc4cc5ccccc5c(c34)C2=O)C1 (centres unmarked) [2-(1-ethyl-3-piperidinyl)] | 635 nM | 609 nM | 8760 nM
O=C1c2cccc3cc4ccccc4c(c23)C(=O)N1c1cccnc1 [2-(3-pyridyl)] | 544 nM | 554 nM | > 25000 nM
O=C1c2cccc3cc4ccccc4c(c23)C(=O)N1CCc1ccccn1 [2-(CH2)2-2-pyridyl] | 6440 nM | 15500 nM | > 25000 nM
CN1CCCC1CCN1C(=O)c2cccc3cc4ccccc4c(c23)C1=O (centres unmarked) [2-(CH2)2-(1-methyl-2-pyrrolidinyl)] | 51 nM | 56 nM | 7080 nM
O=C1c2cccc3cc4ccccc4c(c23)C(=O)N1CCN1CCCC1 [2-(CH2)2N(CH2)4] | 15 nM | 12 nM | 920 nM
O=C1c2cccc3cc4ccccc4c(c23)C(=O)N1CCN1CCCCC1 [2-(CH2)2N(CH2)5] | 51 nM | 51 nM | 10400 nM
CN(C)CCN1C(=O)c2cccc3cc4ccccc4c(c23)C1=O [2-(CH2)2N(CH3)2] | 7 nM | 7 nM | 1980 nM
O=C1c2cccc3cc4ccccc4c(c23)C(=O)N1CCNCCO [2-(CH2)2NH(CH2)2OH] | 18 nM | 41 nM | 943 nM
CNCCN1C(=O)c2ccc(Cl)c3cc4ccccc4c(c23)C1=O [2-(CH2)2NHCH3; 6-Cl] | 53 nM | 53 nM | 7600 nM
CNCCN1C(=O)c2ccc(OC)c3cc4ccccc4c(c23)C1=O [2-(CH2)2NHCH3; 6-OCH3] | 41 nM | 27 nM | 8100 nM
CNCCN1C(=O)c2cccc3cc4ccccc4c(c23)C1=O [2-(CH2)2NHCH3] | 10 nM | 21 nM | 7060 nM
O=C1c2cccc3cc4ccccc4c(c23)C(=O)N1CCN1CCOCC1 [2-(CH2)2—N-morpholinyl] | 512 nM | 512 nM | > 25000 nM
O=C1c2cccc3cc4ccccc4c(c23)C(=O)N1CCN1CCNCC1 [2-(CH2)2—N-piperazinyl] | 174 nM | 463 nM | 6710 nM
O=C1c2cccc3cc4ccccc4c(c23)C(=O)N1CCCN(CCO)CCO [2-(CH2)3N(CH2CH2OH)2] | 76 nM | 142 nM | 8910 nM
CN(C)CCCN1C(=O)c2cccc3cc4ccccc4c(c23)C1=O [2-(CH2)3N(CH3)2] | 54 nM | 82 nM | 11400 nM
CN(C)c1ccc(N2C(=O)c3cccc4cc5ccccc5c(c34)C2=O)cc1 [2-(p-N(CH3)2)—C6H5)] | 187 nM | 1790 nM | 37300 nM
O=C1c2cccc3cc4ccccc4c(c23)C(=O)N1Cc1ccccn1 [2-CH2-2-pyridyl] | 26700 nM | 26700 nM | > 25000 nM
O=C1c2cccc3cc4ccccc4c(c23)C(=O)N1Cc1cccnc1 [2-CH2-3-pyridyl] | 1870 nM | 2670 nM | > 25000 nM
CCN1CCCC1CN1C(=O)c2cccc3cc4ccccc4c(c23)C1=O (centres unmarked) [2-CH2-(1-ethyl-2-pyrrolidinyl)] | 36 nM | 55 nM | 15200 nM
Cc1ccc2cc3ccccc3c3c2c1C(=O)N(CCN(C)C)C3=O [*4-CH3] | 54 nM | 68 nM | 1360 nM
CN(C)CCN1C(=O)c2c(Cl)ccc3cc4ccccc4c(c23)C1=O [*4-Cl] | 10 nM | 15 nM | 900 nM

SMILES | IC50 [1] | IC50 [2] | IC50 [3]
CN(C)CCN1C(=O)c2c(N)ccc3cc4ccccc4c(c23)C1=O [*4-NH2] | 5 nM | 8 nM | 434 nM
CN(C)CCNc1ccc2cc3ccccc3c3c2c1C(=O)N(CCN(C)C)C3=O [*4-NH(CH2)2N(CH3)2] | 210 nM | 245 nM | 734 nM
CN(C)CCN1C(=O)c2c(NC(=O)C(C)(C)C)ccc3cc4ccccc4c(c23)C1=O [*4-NHCOC(CH3)3] | 862 nM | 172 nM | > 24600 nM
CC(=O)Nc1ccc2cc3ccccc3c3c2c1C(=O)N(CCN(C)C)C3=O [*4-NHCOCH3] | 608 nM | 560 nM | > 24300 nM
CN(C)CCN1C(=O)c2cc(N)cc3cc4ccccc4c(c23)C1=O [*5-NH2] | 6 nM | 15 nM | 1720 nM
CN(C)CCN1C(=O)c2cc(NC(=O)C(C)(C)C)cc3cc4ccccc4c(c23)C1=O [*5-NHCOC(CH3)3] | 44 nM | 15 nM | 662 nM
CC(=O)Nc1cc2c3c(c4ccccc4cc3c1)C(=O)N(CCN(C)C)C2=O [*5-NHCOCH3] | 19 nM | 73 nM | 177 nM
CCc1ccc2c3c(c4ccccc4cc13)C(=O)N(CCN(C)C)C2=O [*6-C2H5] | 183 nM | 235 nM | 7830 nM
Cc1ccc2c3c(c4ccccc4cc13)C(=O)N(CCN(C)C)C2=O [*6-CH3] | 7 nM | 27 nM | 989 nM
CN(C)CCN1C(=O)c2ccc(Cl)c3cc4ccccc4c(c23)C1=O [*6-Cl] | 77 nM | 64 nM | 4110 nM
CN(C)CCN1C(=O)c2ccc(I)c3cc4ccccc4c(c23)C1=O [*6-I] | 416 nM | 416 nM | 43700 nM
CN(C)CCN1C(=O)c2ccc(N(C)C)c3cc4ccccc4c(c23)C1=O [*6-N(CH3)2] | 23 nM | 96 nM | 46600 nM
CN(C)CCN1C(=O)c2ccc(N)c3cc4ccccc4c(c23)C1=O [*6-NH2] | 5 nM | 27 nM | 1490 nM
CN(C)CCNc1ccc2c3c(c4cccc(Cl)c4cc13)C(=O)N(CCN(C)C)C2=O [*6-NH(CH2)2N(CH3)2; 8-Cl] | 3 nM | 7 nM | 3230 nM
CN(C)CCNc1ccc2c3c(c4ccccc4cc13)C(=O)N(CCN(C)C)C2=O [*6-NH(CH2)2N(CH3)2] | 0.04 nM | 0.04 nM | 4190 nM
CN(C)CCN1C(=O)c2ccc(NCCO)c3cc4ccccc4c(c23)C1=O [*6-NH(CH2)2OH] | 6 nM | 48 nM | 1210 nM
CN(C)CCOc1ccc2c3c(c4ccccc4cc13)C(=O)N(CCN(C)C)C2=O [*6-O(CH2)2N(CH3)2] | 0.2 nM | 1 nM | 5440 nM
CCCOc1c2ccccc2c2c3c(cccc13)C(=O)N(CCN(C)C)C2=O [*6-OC3H7] | 17 nM | 49 nM | 7760 nM
COc1ccc2c3c(c4ccccc4cc13)C(=O)N(CCN(C)C)C2=O [*6-OCH3] | 3 nM | 4 nM | 799 nM
CN(C)CCN1C(=O)c2ccc(O)c3cc4ccccc4c(c23)C1=O [*6-OH] | 217 nM | 145 nM | > 24100 nM
CCSc1ccc2c3c(c4ccccc4cc13)C(=O)N(CCN(C)C)C2=O [*6-SC2H5] | 6 nM | 5 nM | 7740 nM

SMILES | IC50 [1] | IC50 [2] | IC50 [3]
CSc1ccc2c3c(c4ccccc4cc13)C(=O)N(CCN(C)C)C2=O [*6-SCH3] | 0.4 nM | 0.5 nM | 3000 nM
CN(C)CCN1C(=O)c2ccc(S(C)(=O)=O)c3cc4ccccc4c(c23)C1=O [*6-SO2CH3] | 35 nM | 35 nM | 2320 nM
Cc1c2ccccc2c2c3c(cccc13)C(=O)N(CCN(C)C)C2=O [*7-CH3] | 34 nM | 70 nM | 1680 nM
CN(C)CCN1C(=O)c2cccc3c(Cl)c4ccccc4c(c23)C1=O [*7-Cl] | 154 nM | 206 nM | 10800 nM
CN(C)CCN1C(=O)c2cccc3c(N)c4ccccc4c(c23)C1=O [*7-NH2] | 5 nM | 7 nM | 1950 nM
CN(C)CCNc1c2ccccc2c2c3c(cccc13)C(=O)N(CCN(C)C)C2=O [*7-NH(CH2)2N(CH3)2] | 524 nM | 524 nM | 291000 nM
CC(=O)Nc1c2ccccc2c2c3c(cccc13)C(=O)N(CCN(C)C)C2=O [*7-NHCOCH3] | 487 nM | 487 nM | > 23600 nM
CCOc1c2ccccc2c2c3c(cccc13)C(=O)N(CCN(C)C)C2=O [*7-OC2H5] | 63 nM | 50 nM | 5300 nM
CN(C)CCN1C(=O)c2cccc3c(O)c4ccccc4c(c23)C1=O [*7-OH] | 472 nM | 212 nM | > 24100 nM
CSc1c2ccccc2c2c3c(cccc13)C(=O)N(CCN(C)C)C2=O [*7-SCH3] | 6250 nM | 1220 nM | > 50000 nM
CN(C)CCN1C(=O)c2cccc3cc4c(N)cccc4c(c23)C1=O [*8-NH2] | 6780 nM | 6780 nM | > 81300 nM
CC(=O)Nc1cccc2c3c4c(cccc4cc12)C(=O)N(CCN(C)C)C3=O [*8-NHCOCH3] | 485 nM | 510 nM | 12100 nM
CN(C)CCN1C(=O)c2cccc3cc4c([N+](=O)[O-])cccc4c(c23)C1=O [*8-NO2] | 50 nM | 20 nM | 650 nM
COc1cccc2c3c4c(cccc4cc12)C(=O)N(CCN(C)C)C3=O [*8-OCH3] | 13 nM | 18 nM | 806 nM
CN(C)CCN1C(=O)c2cccc3cc4c(O)cccc4c(c23)C1=O [*8-OH] | 108 nM | 67 nM | 2950 nM
CN(C)CCN1C(=O)c2cccc3cc4cc(Cl)ccc4c(c23)C1=O [*9-Cl] | 8 nM | 8 nM | 1540 nM
CN(C)CCN1C(=O)c2cccc3cc4cc(N)ccc4c(c23)C1=O [*9-NH2] | 3 nM | 16 nM | 813 nM
CC(=O)Nc1ccc2c3c4c(cccc4cc2c1)C(=O)N(CCN(C)C)C3=O [*9-NHCOCH3] | 114 nM | 170 nM | 487 nM
CN(C)CCN1C(=O)c2cccc3cc4ccc(F)cc4c(c23)C1=O [*10-F] | 8 nM |  | 456 nM
